Test results taken from patent US20090029366A1 (priority 2007, published 2009).

Target: T1, human HCN1 (Homo sapiens, UniProt O60741)
T1 construct: expressed in transfected cells; host or cells: HEK-293H
T1 sequence (O60741 1-890): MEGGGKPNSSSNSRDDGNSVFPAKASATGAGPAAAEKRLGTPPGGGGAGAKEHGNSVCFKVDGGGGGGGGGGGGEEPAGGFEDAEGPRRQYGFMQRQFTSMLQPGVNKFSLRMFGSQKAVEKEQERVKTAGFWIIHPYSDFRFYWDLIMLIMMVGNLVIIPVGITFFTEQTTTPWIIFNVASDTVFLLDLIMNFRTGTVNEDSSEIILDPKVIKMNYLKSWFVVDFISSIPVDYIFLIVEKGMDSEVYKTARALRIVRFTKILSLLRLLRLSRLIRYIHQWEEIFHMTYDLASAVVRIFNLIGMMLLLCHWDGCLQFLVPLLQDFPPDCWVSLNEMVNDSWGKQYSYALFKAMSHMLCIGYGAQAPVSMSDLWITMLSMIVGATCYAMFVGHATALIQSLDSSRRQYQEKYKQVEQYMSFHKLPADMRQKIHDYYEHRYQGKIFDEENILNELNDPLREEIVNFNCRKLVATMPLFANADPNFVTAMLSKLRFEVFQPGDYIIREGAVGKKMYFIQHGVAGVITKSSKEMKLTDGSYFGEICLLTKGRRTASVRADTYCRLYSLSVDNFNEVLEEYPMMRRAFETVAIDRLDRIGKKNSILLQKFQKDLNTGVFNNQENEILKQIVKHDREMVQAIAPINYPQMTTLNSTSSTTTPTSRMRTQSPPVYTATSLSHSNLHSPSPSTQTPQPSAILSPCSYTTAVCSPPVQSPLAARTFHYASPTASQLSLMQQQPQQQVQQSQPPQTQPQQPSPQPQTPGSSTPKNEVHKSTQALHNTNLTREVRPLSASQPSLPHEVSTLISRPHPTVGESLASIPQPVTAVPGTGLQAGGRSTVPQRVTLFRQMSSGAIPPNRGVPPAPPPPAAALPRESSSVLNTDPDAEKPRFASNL
Test: MPSD FLIPR 96 well hyperpolarization assay, HCN1
Type: cell-based
Parameters: blockade of hyperpolarization (change in fluorescence), FIG. 4 legend: dose or concentration left out as unconfirmed
Description: The above-described assay was modified for use with the FLIPR®^96 or FLEX^96 96 well plate format. In brief, cells stably expressing HCN channels were plated at 40-80×10^3 cells/plate in 100-150 μl/well of DMEM supplemented with 10% fetal bovine serum, 1× NEAA, and 1× penicillin/streptomycin. Cells were cultured for 24-48 hours in a 5% CO2/air humidifiedincubator at 37° C. Cells were incubated in 30 μl/well of HBSS containing MPSD, as described above, for 15-45 minutes at room temperature.
Membrane potentials were measured at room temperature (21°-23°) using a FLIPR® system or a FLEXSTATION® (Molecular Devices of Sunnydale, Calif.). Control cells were incubated in HBSS/MPSD without a test agent. For identification of HCN channel modulators, cells were incubated in HBSS/MPSD and the presence of a test agent as described in Examples 5 and 6 herein below.
HEK-293H cells stably expressing HCN1 or HCN3 channels were each plated at 40-80×10^3 cells/plate in a FLIPR®^96 well format in 100-150 μl/ well of DMEM supplemented with 10% fetal bovine serum and penicillin/streptomycin. The cells were cultured for 24-48 hours in a 5% CO2/air humidified incubatorat 37° C.
[…] Cells were incubated for 15 to 45 minutes. […] The change in fluorescence (ΔF) was measured for a total assay time of about 100 seconds. […]

SMILES: CCN(c1ccccc1)c1cc(=NC)n(C)c(C)n1.Cl [ZD7288]
- blockade of hyperpolarization (change in fluorescence) (50 μM ZD7288, HEK-293H HCN1, about 100 seconds): effectively blocked hyperpolarization
- blockade of hyperpolarization (change in fluorescence), FIG. 4 legend (cells expressing HCN1): effectively blocked hyperpolarization
